Assay: Human microsomal stability assay
Assay type: in vitro ADME
Settings: human liver microsomes 0.5 mg/mL, 37° C., pH 7.4, NADPH regenerating system, 0-30 minutes
Method: Human Microsomal Stability Assay
Human liver microsomes (Cat. NO.: 452117, Corning, USA) were preincubated with test compound for 10 minutes at 37° C. in 100 mM potassium phosphate buffer, pH 7.4. The reactions were initiated by adding NADPH regenerating system. The final incubation mixtures contained […] test compound, 0.5 mg/mL liver microsomal protein, 1 mM MgCl2, 1 mM NADP, 1 unit/mL isocitric dehydrogenase and 6 mM isocitric acid in 100 mM potassium phosphate buffer, pH 7.4. After incubation times of 0, 3, 6, 9, 15 and 30 minutes at 37° C., 300 μL of cold ACN (including internal standard) was added to 100 μL incubation mixture to terminate the reaction. Following precipitation and centrifugation, 100 μL supernatant will be taken out and added 300 uL water. The amount of compound remaining in the samples was determined by LC-MS/MS. Controls of no NADPH regenerating system at zero and 30 minutes were also prepared and analyzed. The results were categorized as: low (<7.0 mLJmin/kg), medium (7.0-16.2 mL/min/kg) and high (16.2-23.2 mLJmin/kg).

**Q.** For `C[C@@H]1CN(c2ccc(C#N)c3ncccc23)C[C@@H]2c3ccc(OC4CNC4)cc3CN12` [Example 27, 5-[(4R,10bS)-8-(azetidin-3-yloxy)-4-methyl-3,4,6,10b-tetrahydro-1H-pyrazino[2,1-a]isoindol-2-yl]quinoline-8-carbonitrile], which “CL (h)” value is on record?
**A.** 7.7 mL/min/kg

**Q.** Which “CL (h)” value does the source give for `C[C@@H]1CN(c2ccc(C#N)c3ncccc23)C[C@@H]2c3ccc(C(=O)N4CCNCC4)cc3CN12` [Example 86, 5-[(4R,10bS)-4-methyl-8-(piperazine-1-carbonyl)-3,4,6,10b-tetrahydro-1H-pyrazino[2,1-a]isoindol-2-yl]quinoline-8-carbonitrile] here?
**A.** 7.7 mL/min/kg

**Q.** With `C[C@@H]1CN(c2ccc(C#N)n3nccc23)C[C@@H]2c3ccc(N4CCC(C)(N)CC4)cc3CN12` [Example 100, 4-[(4R,10bS)-8-(4-amino-4-methyl-1-piperidyl)-4-methyl-3,4,6,10b-tetrahydro-1H-pyrazino[2,1-a]isoindol-2-yl]pyrazolo[1,5-a]pyridine-7-carbonitrile] as the compound, how does the “CL (h)” value read?
**A.** 8.0 mL/min/kg

**Q.** Which “CL (h)” value does the source give for `C[C@@H]1CN(c2ccc(C#N)c3ncccc23)C[C@@H]2c3ccc(C(=O)N4C[C@@H]5C[C@H]4CN5)cc3CN12` [Example 87, 5-[(4R,10bS)-8-[(1S,4S)-2,5-diazabicyclo[2.2.1]heptane-2-carbonyl]-4-methyl-3,4,6,10b-tetrahydro-1H-pyrazino[2,1-a]isoindol-2-yl]quinoline-8-carbonitrile] here?
**A.** 8.0 mL/min/kg
